Experiments:
Experiment in all cases: biochemical
Parameters in all cases: KINOMEscan scanMAX active site-directed competition binding assay, percent of control, 468 kinases
Conditions in all cases: competition binding, percent of control
DAPK2 = DAPK2 (Homo sapiens, UniProt Q9UIK4)
In short: (§1)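 KINOMEscan active site-directed competition binding assay against 468 human kinases with 100 μM S-carvone. Binding expressed as % of control, with 35% of control as the inhibition threshold.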

GRK2 = GRK2 (Homo sapiens, UniProt P25098)
GRK2, sequence (P25098 whole entry): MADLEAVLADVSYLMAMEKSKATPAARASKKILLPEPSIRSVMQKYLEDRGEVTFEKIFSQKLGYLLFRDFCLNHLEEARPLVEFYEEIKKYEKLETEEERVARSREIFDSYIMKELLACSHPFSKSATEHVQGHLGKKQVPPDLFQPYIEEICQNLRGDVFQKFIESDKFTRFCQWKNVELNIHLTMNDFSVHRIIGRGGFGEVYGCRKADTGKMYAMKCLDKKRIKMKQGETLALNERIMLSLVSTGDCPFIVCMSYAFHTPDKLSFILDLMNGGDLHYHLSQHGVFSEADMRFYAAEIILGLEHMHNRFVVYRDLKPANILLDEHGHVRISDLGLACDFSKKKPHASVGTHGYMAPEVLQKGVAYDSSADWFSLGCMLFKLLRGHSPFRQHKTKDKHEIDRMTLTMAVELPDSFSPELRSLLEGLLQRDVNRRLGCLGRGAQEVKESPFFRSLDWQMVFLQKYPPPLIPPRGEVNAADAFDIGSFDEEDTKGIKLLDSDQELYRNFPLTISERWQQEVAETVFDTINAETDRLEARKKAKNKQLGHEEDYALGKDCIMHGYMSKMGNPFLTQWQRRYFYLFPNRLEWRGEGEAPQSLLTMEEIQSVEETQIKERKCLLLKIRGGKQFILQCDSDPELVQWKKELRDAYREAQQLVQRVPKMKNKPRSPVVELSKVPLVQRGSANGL
In short: as §1

PAK3 = PAK3 (Homo sapiens, UniProt O75914)
In short: as §1

[1] = biological target: T1, ABL1(Y253F)-phosphorylated (Homo sapiens, UniProt P00519, Y253F)
T1 construct: phosphorylated
In short: as §1

PIK4CB = biological target: T2, PIK4CB (Homo sapiens, UniProt Q9UBF8)
T2 construct: gene PI4KB
In short: as §1

ERK8 = biological target: T3, ERK8 (Homo sapiens, UniProt Q8TD08)
T3 construct: gene MAPK15
In short: as §1

[2] = biological target: T4, TYK2(JH1domain-catalytic) (Homo sapiens, UniProt P29597)
T4 construct: JH1domain-catalytic
In short: as §1

PIK3CA(E542K) = PIK3CA(E542K) (Homo sapiens, UniProt P42336, E542K)
In short: as §1

CDK2 = CDK2 (Homo sapiens, UniProt P24941)
In short: as §1

LZK = biological target: T5, LZK (Homo sapiens, UniProt O43283)
T5 construct: gene MAP3K13
In short: as §1

CDK8 = CDK8 (Homo sapiens, UniProt P49336)
CDK8, sequence (P49336 whole entry): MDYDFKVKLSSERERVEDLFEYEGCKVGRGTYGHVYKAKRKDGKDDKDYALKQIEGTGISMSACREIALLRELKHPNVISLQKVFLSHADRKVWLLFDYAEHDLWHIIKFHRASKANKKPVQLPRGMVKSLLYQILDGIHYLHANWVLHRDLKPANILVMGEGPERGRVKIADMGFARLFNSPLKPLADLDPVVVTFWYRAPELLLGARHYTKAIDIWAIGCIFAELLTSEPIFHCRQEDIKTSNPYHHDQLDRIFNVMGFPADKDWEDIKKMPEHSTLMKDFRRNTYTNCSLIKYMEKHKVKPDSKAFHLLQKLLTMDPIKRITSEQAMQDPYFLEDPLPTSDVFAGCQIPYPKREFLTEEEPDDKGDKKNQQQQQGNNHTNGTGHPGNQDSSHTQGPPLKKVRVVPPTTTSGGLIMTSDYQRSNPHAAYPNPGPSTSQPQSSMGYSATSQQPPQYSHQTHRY
In short: as §1

PIK3CA(C420R) = PIK3CA(C420R) (Homo sapiens, UniProt P42336, C420R)
In short: as §1

MST1R = MST1R (Homo sapiens, UniProt Q04912)
MST1R, sequence (Q04912 whole entry): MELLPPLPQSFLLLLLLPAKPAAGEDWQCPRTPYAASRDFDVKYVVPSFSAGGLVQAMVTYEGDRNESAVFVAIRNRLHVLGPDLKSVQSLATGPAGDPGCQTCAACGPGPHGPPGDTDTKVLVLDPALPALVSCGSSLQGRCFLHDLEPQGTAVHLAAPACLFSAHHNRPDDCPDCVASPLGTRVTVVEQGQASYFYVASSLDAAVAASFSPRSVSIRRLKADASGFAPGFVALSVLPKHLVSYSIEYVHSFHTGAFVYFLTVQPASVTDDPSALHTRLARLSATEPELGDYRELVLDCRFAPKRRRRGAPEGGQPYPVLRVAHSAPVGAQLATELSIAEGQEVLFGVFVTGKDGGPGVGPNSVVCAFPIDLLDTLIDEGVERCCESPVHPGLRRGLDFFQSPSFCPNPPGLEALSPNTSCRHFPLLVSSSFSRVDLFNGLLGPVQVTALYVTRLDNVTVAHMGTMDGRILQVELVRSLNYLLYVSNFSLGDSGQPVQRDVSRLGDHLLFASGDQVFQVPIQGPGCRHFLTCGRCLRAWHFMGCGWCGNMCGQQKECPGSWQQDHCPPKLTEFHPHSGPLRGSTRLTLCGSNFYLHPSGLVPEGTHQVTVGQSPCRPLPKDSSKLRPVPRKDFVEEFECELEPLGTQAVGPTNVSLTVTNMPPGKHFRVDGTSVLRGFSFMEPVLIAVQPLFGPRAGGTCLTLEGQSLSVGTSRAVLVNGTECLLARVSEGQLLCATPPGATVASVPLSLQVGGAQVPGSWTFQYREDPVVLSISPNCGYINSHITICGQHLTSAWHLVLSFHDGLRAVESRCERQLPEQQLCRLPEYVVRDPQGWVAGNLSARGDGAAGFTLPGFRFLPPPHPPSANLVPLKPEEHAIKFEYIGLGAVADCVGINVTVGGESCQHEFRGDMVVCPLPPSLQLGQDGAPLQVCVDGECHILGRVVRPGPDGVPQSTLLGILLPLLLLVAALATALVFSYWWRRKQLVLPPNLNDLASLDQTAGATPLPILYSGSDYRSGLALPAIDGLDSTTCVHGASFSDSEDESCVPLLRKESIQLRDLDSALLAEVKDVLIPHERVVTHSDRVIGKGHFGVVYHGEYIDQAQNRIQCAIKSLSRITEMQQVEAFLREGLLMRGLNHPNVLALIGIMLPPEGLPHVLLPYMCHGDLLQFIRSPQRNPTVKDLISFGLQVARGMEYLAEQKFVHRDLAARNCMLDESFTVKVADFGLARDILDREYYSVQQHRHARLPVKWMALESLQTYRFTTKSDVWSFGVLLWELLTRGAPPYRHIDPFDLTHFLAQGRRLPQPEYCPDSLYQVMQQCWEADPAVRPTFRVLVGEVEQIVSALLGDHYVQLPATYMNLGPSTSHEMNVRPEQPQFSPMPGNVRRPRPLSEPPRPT
In short: as §1

PRKCQ = PRKCQ (Homo sapiens, UniProt Q04759)
In short: as §1

ACVRL1 = ACVRL1 (Homo sapiens, UniProt P37023)
In short: as §1

TAOK3 = TAOK3 (Homo sapiens, UniProt Q9H2K8)
In short: as §1

STK33 = STK33 (Homo sapiens, UniProt Q9BYT3)
In short: as §1

IRAK3 = IRAK3 (Homo sapiens, UniProt Q9Y616)
In short: as §1

EGFR(S752-I759del) = EGFR(S752-I759del) (Homo sapiens, UniProt P00533, DEL752-759)
EGFR(S752-I759del), sequence (P00533 with tags, fused parts or gaps DEL752-759): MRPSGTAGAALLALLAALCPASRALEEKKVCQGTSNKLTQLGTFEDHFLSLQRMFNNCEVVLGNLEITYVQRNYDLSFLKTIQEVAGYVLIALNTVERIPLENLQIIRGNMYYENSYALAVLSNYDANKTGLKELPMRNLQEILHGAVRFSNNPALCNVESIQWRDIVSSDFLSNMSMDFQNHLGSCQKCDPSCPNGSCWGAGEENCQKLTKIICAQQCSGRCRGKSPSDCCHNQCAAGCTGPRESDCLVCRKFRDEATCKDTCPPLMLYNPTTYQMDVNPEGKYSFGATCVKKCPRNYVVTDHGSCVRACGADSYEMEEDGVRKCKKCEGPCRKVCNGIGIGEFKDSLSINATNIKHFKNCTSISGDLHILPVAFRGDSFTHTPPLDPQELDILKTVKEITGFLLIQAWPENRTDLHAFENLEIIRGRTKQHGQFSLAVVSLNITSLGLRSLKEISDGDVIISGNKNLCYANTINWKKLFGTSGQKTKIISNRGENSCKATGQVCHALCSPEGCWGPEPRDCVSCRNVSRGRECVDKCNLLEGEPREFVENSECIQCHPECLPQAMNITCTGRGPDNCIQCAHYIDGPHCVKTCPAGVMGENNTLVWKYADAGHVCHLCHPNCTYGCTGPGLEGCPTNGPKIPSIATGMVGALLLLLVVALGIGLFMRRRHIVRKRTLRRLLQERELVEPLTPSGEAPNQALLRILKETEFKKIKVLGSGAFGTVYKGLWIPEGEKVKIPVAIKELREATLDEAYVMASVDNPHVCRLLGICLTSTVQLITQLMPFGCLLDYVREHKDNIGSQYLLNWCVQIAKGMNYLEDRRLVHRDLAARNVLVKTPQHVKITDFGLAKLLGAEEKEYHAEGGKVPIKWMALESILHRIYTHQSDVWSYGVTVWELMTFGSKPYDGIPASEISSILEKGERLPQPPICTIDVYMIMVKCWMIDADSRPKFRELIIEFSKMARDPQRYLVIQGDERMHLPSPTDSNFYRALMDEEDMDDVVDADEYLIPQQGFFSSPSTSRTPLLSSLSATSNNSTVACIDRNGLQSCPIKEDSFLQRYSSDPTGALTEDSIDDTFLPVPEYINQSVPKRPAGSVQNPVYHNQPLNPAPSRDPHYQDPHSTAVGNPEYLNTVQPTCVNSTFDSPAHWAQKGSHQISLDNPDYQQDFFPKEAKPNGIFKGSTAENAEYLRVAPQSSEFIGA
In short: as §1

FLT3(ITD,F691L) = FLT3(ITD,F691L) (Homo sapiens, UniProt P36888, F691L/ITD)
In short: as §1

LIMK1 = LIMK1 (Homo sapiens, UniProt P53667)
LIMK1, sequence (P53667 whole entry): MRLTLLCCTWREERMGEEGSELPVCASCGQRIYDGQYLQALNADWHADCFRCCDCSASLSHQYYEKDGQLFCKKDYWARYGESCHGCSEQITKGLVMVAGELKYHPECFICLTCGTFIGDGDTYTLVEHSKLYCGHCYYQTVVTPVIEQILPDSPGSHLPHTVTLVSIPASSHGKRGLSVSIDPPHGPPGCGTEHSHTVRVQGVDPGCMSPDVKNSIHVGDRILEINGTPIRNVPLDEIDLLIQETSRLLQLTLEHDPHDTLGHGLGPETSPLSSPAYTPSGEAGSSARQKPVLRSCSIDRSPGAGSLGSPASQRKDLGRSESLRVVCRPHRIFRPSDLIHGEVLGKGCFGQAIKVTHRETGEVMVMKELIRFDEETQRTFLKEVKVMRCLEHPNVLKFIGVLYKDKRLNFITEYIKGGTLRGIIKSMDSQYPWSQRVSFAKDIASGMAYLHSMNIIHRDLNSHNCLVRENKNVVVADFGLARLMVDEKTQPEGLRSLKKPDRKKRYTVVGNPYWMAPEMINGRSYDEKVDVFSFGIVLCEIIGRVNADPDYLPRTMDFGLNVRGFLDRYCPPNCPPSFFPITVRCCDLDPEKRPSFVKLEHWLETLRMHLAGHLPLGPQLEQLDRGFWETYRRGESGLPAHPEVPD
In short: as §1

DAPK2, sequence (Q9UIK4 whole entry): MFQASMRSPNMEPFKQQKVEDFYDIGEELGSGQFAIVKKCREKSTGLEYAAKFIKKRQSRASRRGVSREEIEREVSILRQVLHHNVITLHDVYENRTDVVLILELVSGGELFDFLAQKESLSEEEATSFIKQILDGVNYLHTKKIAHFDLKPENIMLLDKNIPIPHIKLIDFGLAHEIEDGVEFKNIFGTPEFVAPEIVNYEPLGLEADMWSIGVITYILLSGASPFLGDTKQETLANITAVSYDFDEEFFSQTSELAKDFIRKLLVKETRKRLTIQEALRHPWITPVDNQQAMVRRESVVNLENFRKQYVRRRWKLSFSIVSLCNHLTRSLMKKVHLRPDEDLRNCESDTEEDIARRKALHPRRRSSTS

- remaining binding at 100 µM (DAPK2): 79%
- remaining binding at 100 µM (GRK2): 58%
- remaining binding at 100 µM (PAK3): 78%
- remaining binding at 100 µM [1]: 67%
- remaining binding at 100 µM (PIK4CB): 65%
- remaining binding at 100 µM [2]: 58%
- remaining binding at 100 µM (PIK3CA(E542K)): 70%
- remaining binding at 100 µM (CDK2): 85%
- remaining binding at 100 µM (LZK): 78%
- remaining binding at 100 µM (CDK8): 84%
- remaining binding at 100 µM (PIK3CA(C420R)): 96%
- remaining binding at 100 µM (MST1R): 65%
- remaining binding at 100 µM (PRKCQ): 75%
- remaining binding at 100 µM (ACVRL1): 88%
- remaining binding at 100 µM (TAOK3): 73%
- remaining binding at 100 µM (STK33): 100%
- remaining binding at 100 µM (IRAK3): 100%
- remaining binding at 100 µM (EGFR(S752-I759del)): 66%
- remaining binding at 100 µM (FLT3(ITD,F691L)): 71%
- remaining binding at 100 µM (LIMK1): 89%
Compound: C=C(C)[C@H]1CC=C(C)C(=O)C1 [S-carvone]
- remaining binding at 100 µM (ERK8): 91%
